Data published in PubChem BioAssay (NCI).
“And” between values parts separate entries of the source, which are not always exact repeats. Identical values can stand only once.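 Tested at 5 concentrations; 48 h exposure; 96-well plates; endpoints linearly interpolated, else capped at highest concentration. Abbreviation: GI50, concentration required for 50% inhibition of growth. TGI denotes the concentration required for complete inhibition of growth.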

Experiments:
Test in all cases: inhibition of tumour cell growth, NCI panel, 48 h
A549 NSCLC = system: A549 NSCLC
A498 renal = system: A498 renal
MDA-MB-435 = system: MDA-MB-435
HT29 colon = system: HT29 colon
SW-620 colon = system: SW-620 colon
TK-10 renal = system: TK-10 renal
MDA-MB-231 breast = system: MDA-MB-231 breast
U251 CNS = system: U251 CNS
SK-MEL-5 melanoma = system: SK-MEL-5 melanoma
OVCAR-3 ovarian = system: OVCAR-3 ovarian
HS 578T breast = system: HS 578T breast
HCC-2998 colon = system: HCC-2998 colon
SK-OV-3 ovarian = system: SK-OV-3 ovarian
RPMI-8226 leukemia = system: RPMI-8226 leukemia
SK-MEL-28 melanoma = system: SK-MEL-28 melanoma
CAKI-1 renal = system: CAKI-1 renal
SF-539 CNS = system: SF-539 CNS
SF-295 CNS = system: SF-295 CNS
UACC-62 melanoma = system: UACC-62 melanoma
KM12 colon = system: KM12 colon
EKVX NSCLC = system: EKVX NSCLC
K-562 leukemia = system: K-562 leukemia
MOLT-4 leukemia = system: MOLT-4 leukemia
LOX IMVI melanoma = system: LOX IMVI melanoma
NCI/ADR-RES ovarian = system: NCI/ADR-RES ovarian
MCF7 breast = system: MCF7 breast
M14 melanoma = system: M14 melanoma
HOP-92 NSCLC = system: HOP-92 NSCLC
ACHN renal = system: ACHN renal
OVCAR-4 ovarian = system: OVCAR-4 ovarian
NCI-H460 lung = system: NCI-H460 lung
HOP-62 NSCLC = system: HOP-62 NSCLC
IGROV1 ovarian = system: IGROV1 ovarian
SF-268 CNS = system: SF-268 CNS
HCT-116 colon = system: HCT-116 colon
COLO 205 colon = system: COLO 205 colon
SNB-75 CNS = system: SNB-75 CNS
CCRF-CEM leukemia = system: CCRF-CEM leukemia
T-47D breast = system: T-47D breast
HL-60(TB) leukemia = system: HL-60(TB) leukemia
HCT-15 colon = system: HCT-15 colon
NCI-H226 lung = system: NCI-H226 lung
PC-3 prostate = system: PC-3 prostate
BT-549 breast = system: BT-549 breast
SK-MEL-2 melanoma = system: SK-MEL-2 melanoma
OVCAR-5 ovarian = system: OVCAR-5 ovarian
MALME-3M melanoma = system: MALME-3M melanoma
SNB-19 CNS = system: SNB-19 CNS
NCI-H23 lung = system: NCI-H23 lung
RXF 393 renal = system: RXF 393 renal
NCI-H522 lung = system: NCI-H522 lung
UO-31 renal = system: UO-31 renal
SR leukemia = system: SR leukemia
SN12C renal = system: SN12C renal
786-0 renal = system: 786-0 renal
DU-145 prostate = system: DU-145 prostate
UACC-257 melanoma = system: UACC-257 melanoma
OVCAR-8 ovarian = system: OVCAR-8 ovarian

Nc1nc(Cl)nc2c1ncn2[C@@H]1O[C@H](COS(N)(=O)=O)[C@@H](O)[C@H]1O
GI50 (A549 NSCLC): 25.9 nM and 26.3 nM | TGI (A549 NSCLC): 82.9 nM and 82.3 nM | GI50 (A498 renal): 9.43 nM and 14.8 nM | TGI (A498 renal): 25.4 nM and 30.9 nM | GI50 (MDA-MB-435): 17.1 nM and 17.6 nM | TGI (MDA-MB-435): 32.7 nM and 34.1 nM | GI50 (HT29 colon): 25.4 nM and 30 nM | TGI (HT29 colon): 67.8 nM and 94.9 nM | GI50 (SW-620 colon): 25.6 nM and 31.2 nM | GI50 (TK-10 renal): 21 nM and 21.1 nM | TGI (TK-10 renal): 58.1 nM and 65.4 nM | GI50 (MDA-MB-231 breast): 4.81 nM | TGI (MDA-MB-231 breast): 29.4 nM and 26.2 nM | GI50 (U251 CNS): 22.2 nM and 23.1 nM | TGI (U251 CNS): 65.8 nM and 66.3 nM | GI50 (SK-MEL-5 melanoma): 16.8 nM and 17.9 nM | TGI (SK-MEL-5 melanoma): 31.3 nM and 33 nM | GI50 (OVCAR-3 ovarian): 28.2 nM | TGI (OVCAR-3 ovarian): 86.4 nM and 71.4 nM | GI50 (HS 578T breast): 26.3 nM and 25.6 nM | TGI (HS 578T breast): 86.9 nM and 78.7 nM | GI50 (HCC-2998 colon): 19.1 nM and 22.6 nM | TGI (HCC-2998 colon): 38.2 nM and 49.8 nM | GI50 (SK-OV-3 ovarian): 24.8 nM and 26 nM | TGI (SK-OV-3 ovarian): 73.9 nM and 66.6 nM | GI50 (RPMI-8226 leukemia): 25.1 nM and 25.5 nM | TGI (RPMI-8226 leukemia): 97.5 nM and 72 nM | GI50 (SK-MEL-28 melanoma): 20.1 nM and 20.8 nM | TGI (SK-MEL-28 melanoma): 50 nM and 51.1 nM | GI50 (CAKI-1 renal): 20.8 nM | TGI (CAKI-1 renal): 50.6 nM | GI50 (SF-539 CNS): 21.7 nM | TGI (SF-539 CNS): 56.3 nM and 53.3 nM | GI50 (SF-295 CNS): 24.4 nM and 32.4 nM | TGI (SF-295 CNS): 75.1 nM and 143 nM | GI50 (UACC-62 melanoma): 19 nM and 21.7 nM | TGI (UACC-62 melanoma): 44 nM and 56.1 nM | GI50 (KM12 colon): 23.2 nM and 32.1 nM | TGI (KM12 colon): 70.7 nM and 166 nM | GI50 (EKVX NSCLC): 23.2 nM and 30.1 nM | TGI (EKVX NSCLC): 68.8 nM and 167 nM | GI50 (K-562 leukemia): 17 nM and 19.9 nM | TGI (K-562 leukemia): 118 nM | GI50 (MOLT-4 leukemia): 10.9 nM | TGI (MOLT-4 leukemia): 391 nM and 45.7 nM | GI50 (LOX IMVI melanoma): 18.1 nM and 23.1 nM | TGI (LOX IMVI melanoma): 35.6 nM and 55.2 nM | GI50 (NCI/ADR-RES ovarian): 12.1 nM and 19.6 nM | TGI (NCI/ADR-RES ovarian): 54 nM and 145 nM | GI50 (MCF7 breast): 24 nM and 29.3 nM | GI50 (M14 melanoma): 18.6 nM and 19.2 nM | TGI (M14 melanoma): 42.1 nM and 37.5 nM | GI50 (HOP-92 NSCLC): 15.9 nM and 20.6 nM | TGI (HOP-92 NSCLC): 45.4 nM and 56 nM | GI50 (ACHN renal): 25.7 nM and 25.2 nM | TGI (ACHN renal): 77.8 nM and 65.7 nM | GI50 (OVCAR-4 ovarian): 3.03 nM | TGI (OVCAR-4 ovarian): 9.29 nM and 32.4 nM | GI50 (NCI-H460 lung): 30.6 nM and 30.5 nM | TGI (NCI-H460 lung): 104 nM and 108 nM | GI50 (HOP-62 NSCLC): 6.84 nM | TGI (HOP-62 NSCLC): 33.3 nM | GI50 (IGROV1 ovarian): 30.4 nM and 30.8 nM | TGI (IGROV1 ovarian): 91.5 nM and 96.4 nM | GI50 (SF-268 CNS): 23.4 nM and 26.9 nM | TGI (SF-268 CNS): 76.8 nM and 88 nM | GI50 (HCT-116 colon): 18.3 nM and 25.1 nM | TGI (HCT-116 colon): 104 nM and 76.7 nM | GI50 (COLO 205 colon): 20.2 nM and 23.9 nM | TGI (COLO 205 colon): 48.9 nM and 54.3 nM | GI50 (SNB-75 CNS): 20.2 nM and 20.9 nM | TGI (SNB-75 CNS): 55.8 nM and 55.4 nM | GI50 (CCRF-CEM leukemia): 15.9 nM and 27 nM | TGI (CCRF-CEM leukemia): 101 nM | GI50 (T-47D breast): 15.6 nM and 20 nM | TGI (T-47D breast): 65.6 nM and 74.4 nM | TGI (HL-60(TB) leukemia): 22.4 nM | GI50 (HCT-15 colon): 27.2 nM and 31.3 nM | TGI (HCT-15 colon): 88.1 nM and 168 nM | GI50 (NCI-H226 lung): 17.4 nM and 16.7 nM | TGI (NCI-H226 lung): 40.1 nM and 46.3 nM | GI50 (PC-3 prostate): 20.9 nM and 25.8 nM | TGI (PC-3 prostate): 73.7 nM and 80 nM | GI50 (BT-549 breast): 9 nM and 24.3 nM | TGI (BT-549 breast): 64.6 nM and 71.3 nM | GI50 (SK-MEL-2 melanoma): 18.5 nM and 19.5 nM | TGI (SK-MEL-2 melanoma): 43.7 nM and 42.9 nM | GI50 (OVCAR-5 ovarian): 4.25 nM | TGI (OVCAR-5 ovarian): 40.1 nM and 38.5 nM | GI50 (MALME-3M melanoma): 18.8 nM and 20.9 nM | TGI (MALME-3M melanoma): 40.3 nM and 45.6 nM | GI50 (SNB-19 CNS): 3.65 nM | TGI (SNB-19 CNS): 32.3 nM and 46.5 nM | GI50 (NCI-H23 lung): 21 nM and 28.8 nM | TGI (NCI-H23 lung): 53.8 nM and 98.2 nM | GI50 (RXF 393 renal): 19 nM and 22.9 nM | TGI (RXF 393 renal): 47.5 nM and 49.6 nM | GI50 (NCI-H522 lung): 5.03 nM and 21.2 nM | TGI (NCI-H522 lung): 24.4 nM and 62.3 nM | GI50 (UO-31 renal): 19.3 nM | TGI (UO-31 renal): 47.5 nM | GI50 (SR leukemia): 3.07 nM | TGI (SR leukemia): 48.7 nM and 41.8 nM | GI50 (SN12C renal): 3.77 nM | TGI (SN12C renal): 41.7 nM and 86.8 nM | GI50 (786-0 renal): 21.4 nM and 26.6 nM | TGI (786-0 renal): 55.6 nM and 74.1 nM | GI50 (DU-145 prostate): 4.13 nM | TGI (DU-145 prostate): 34.9 nM and 30.1 nM | GI50 (UACC-257 melanoma): 23.3 nM and 24.2 nM | TGI (UACC-257 melanoma): 69.4 nM and 68.5 nM | GI50 (OVCAR-8 ovarian): 17.8 nM and 17.1 nM | TGI (OVCAR-8 ovarian): 56.2 nM and 45.3 nM
